≈ marks a conversion by molar mass, not a printed value.
Key:
[1] = test system: M. gallisepticum; experiment: MIC, liquid dilution method, Mycoplasma gallisepticum; conditions: Mycoplasmoides gallisepticum
[2] = test system: M. pneumoniae; experiment: MIC, liquid dilution method, Mycoplasma pneumoniae; conditions: Mycoplasmoides pneumoniae
[3] = test system: E. avium; experiment: MIC, agar dilution method, E. avium; conditions: Enterococcus avium
[4] = test system: Aspergillus fumigatus; experiment: Antifungal activity, micro-liquid dilution method, Aspergillus fumigatus; type: cell-based, Aspergillus fumigatus strain MA; conditions: 24 hours, 30° C.
Description: (§1) Antifungal activities of the compounds to Candida albicans (strain Ca-15) and Asperilhm fumigatus (strain MA), representative pathogenic fungi, were determined by micro-liquid dilution method using 96-well microplates. A fungal suspension stored under freezing was adjusted to 1×1 O^5 CFU/ml by medium, of which 100 μl portions were charged into each well. The compound of the present invention was dissolved in dimethylsulfoxide (DMSO). Using the resultant solution, 2-fold dilution series were prepared together with the fungal suspension charged into the wells. YNB medium and RPMI medium were used. After cultured for 24 hours at 30° C., evaluation was performed by detecting the turbidity (wave length: 595 nm) using microplate reader.

[5] = test system: M. hyopneumoniae; experiment: MIC, liquid dilution method, Mycoplasma hyopneumoniae; conditions: Mesomycoplasma hyopneumoniae
[6] = test system: C. trachmatis; experiment: MIC, C. trachmatis; type: cell-based; conditions: C. trachmatis D/UW-3/CX
[7] = test system: Branhamella catarrhalis; experiment: MIC, Branhamella catarrhalis; type: cell-based; conditions: Moraxella catarrhalis; B. catarrhalis A 25238
Description: Thus, sensitivity-disc medium (Nissui) was used as a sensitivity determination medium, to which about 1 μl of 10^6 CFU/ml of the bacterial suspension was inoculated.

[8] = test system: M. gallisepticum; experiment: In vivo evaluation test for M. gallisepticum in chickens (air-sac lesions); conditions: 6 chickens tested
[9] = test system: Candida albicans; experiment: Antifungal activity, micro-liquid dilution method, Candida albicans; type: cell-based, Candida albicans strain Ca-15; conditions: 24 hours, 30° C.
Description: as §1

Question: Which results are given for `CCCCCc1cccc(O)c1C1=NC(C2SCC(C(O)C(C)(C)C3=NC(C)(C(=O)O)CS3)N2C)CS1` (stereo not shown) [Compound 9]?
Answer: MIC [1]: 0.2 µg/mL (≈ 0.353 µM); MIC [2]: 0.00625 µg/mL (≈ 0.011 µM); MIC [3]: 1.56 µg/mL (≈ 2.76 µM); Antifungal activities: IC50 ([4]; RPMI medium): 0.2 µg/mL; Antifungal activities: IC50 ([4]; YNB medium): 3.2 µg/mL; MIC [5]: 0.025 µg/mL (≈ 0.0442 µM); MIC [6]: 16 µg/mL (≈ 28.3 µM); MIC [7]: 3.13 µg/mL (≈ 5.53 µM); air-sac lesions (the number of chickens): (+) slight ([8]; 25 mg/kg × 1, orally): 0; air-sac lesions (the number of chickens): (++-+++) moderate to severe ([8]; 25 mg/kg × 1, orally): 2; air-sac lesions (the number of chickens): (-) non ([8]; 25 mg/kg × 1, orally): 4; number of chickens having lesions ([8]; 25 mg/kg × 1, orally): 2; air-sac lesions (the number of chickens): (+) slight ([8]; 50 mg/kg × 1, orally): 1; air-sac lesions (the number of chickens): (++-+++) moderate to severe ([8]; 50 mg/kg × 1, orally): 1; air-sac lesions (the number of chickens): (-) non ([8]; 50 mg/kg × 1, orally): 4; number of chickens having lesions ([8]; 50 mg/kg × 1, orally): 2; air-sac lesions (the number of chickens): (+) slight ([8]; 100 mg/kg × 1, orally): 0; air-sac lesions (the number of chickens): (++-+++) moderate to severe ([8]; 100 mg/kg × 1, orally): 1; air-sac lesions (the number of chickens): (-) non ([8]; 100 mg/kg × 1, orally): 5; number of chickens having lesions ([8]; 100 mg/kg × 1, orally): 1; Antifungal activities: IC50 ([9]; RPMI medium): 1.6 µg/mL; Antifungal activities: IC50 ([9]; YNB medium): 6.3 µg/mL
